These results are taken from PMC6353875, “The EZH2 SANT1 domain is a histone reader providing sensitivity to the modification state of the H4 tail” (Scientific Reports, 2019).

“Also recorded” adds a separate entry of the source.

The target of experiment [1] is T1, EZH2 SRM-SANT1 (residues 141–251) (Homo sapiens, UniProt Q15910).
T1 construct: All additional studies were performed with the SRM-SANT1 construct containing residues 141–251; GST (N, cleaved yes); made in house; host or cells: E. coli Rosetta2 (DE3) pLysS
Nature of the experiment: NMR titration (1H-15N HSQC) of SRM-SANT1 with histone peptides. It counts as binding. The settings on record: for chemical shift perturbations (CSPs) upon peptide addition: 1H-15N HSQC overlay, 25 °C, 0.05–0.10 mM 15N-SRM-SANT1, increasing concentrations of peptide; for effect of H4K16 acetylation on interaction/binding (NMR): 1H-15N HSQC titration of SRM-SANT1 with H4K16ac(1–21). The text has this:
(§1) The complete human EZH2 cDNA was obtained from OpenBiosystems (GE Healthcare, Accession #:BC010858). EZH2 SANT1 (residues 159–251) and SRM-SANT1 (residues 141–251) were subcloned into a pDEST15 (N-terminal GST-tag) expression vector using the Gateway Recombination cloning method (Invitrogen, ThermoScientific) with a PreScission Protease cleavage site engineered between the GST-tag and the N-terminus of EZH2 SRM-SANT1. Mutants were generated in the 141–251 construct using site-directed mutagenesis (Q5 mutagenesis kit, New England Biolabs).
(§2) For purification, cell pellets were thawed on ice and lysed by emulsiflex in a lysis buffer containing 150 mM NaCl, 50 mM Tris (pH 6.5), 3 mM DTT, 0.1% Triton X-100 and DNaseI. Lysate was cleared at 18,000 g for 1 hour at 4 °C. The soluble supernatant was incubated with glutathione agarose resin (ThermoFisher Scientific) and washed extensively with a buffer containing 900 mM NaCl, 50 mM Tris (pH 6.5) and 3 mM DTT. The GST-tag was cleaved by incubation with PreScission Protease overnight and SRM-SANT1 was further purified by FPLC using […] over a Source15S column and size exclusion chromatography over a superdex 75 column. The final buffer contained 150 mM NaCl, 50 mM Tris (pH 6.5), 3 mM DTT, with or without 5 mM EDTA.
Biotinylated histone H4K16ac (1–21, AS-64847-1) was obtained from Anaspec. All histone peptides were dissolved in H2O at a concentration of 20 mM, and the pH adjusted to ~7.0. DNA oligos were obtained from IDT. The DNA was annealed by mixing equimolar amounts of single stranded oligos. DNA was heated to 95 °C for 10 minutes before allowing to cool overnight. The annealed DNA was further purified by size exclusion chromatography over a superdex 75 column in a buffer containing 150 mM NaCl, 50 mM Tris (pH 6.5), 3 mM DTT, with 5 mM EDTA. Titrations were performed by collecting ^15N-HSQC spectra on 0.05–0.10 mM ^15N-EZH2 SRM-SANT1 while titrating in increasing concentrations of the respective ligands. Titration experiments were performed at 25 °C on a Bruker Avance II 800 MHz NMR spectrometer equipped with a 5 mm triple resonance cryoprobe. Data was processed and analyzed using NMRPipe and CcpNmr[53],[54].
Kd values were determined for all individual residues with significant Δδ in each individual titration.

A further experiment concerns SRM-SANT1. Kind of experiment: Biotinylated histone peptide pulldown. Type of experiment: binding, human. Particulars: for effect of modification on SRM-SANT1 binding (pulldown): 1 μg SRM-SANT1 with 1 μg Biotin-tagged H4 peptide, overnight 4 °C, 150 mM NaCl, 50 mM Tris (pH 6.5), 3 mM DTT, streptavidin resin, coomassie, ImageJ, triplicate, vs corresponding unmodified peptide, p-value < 0.05; for effect of H4 modification on binding of SANT1 to H4 (abstract summary): summary statement in abstract.
Excerpt: as §1, §2
Biotinylated unmodified histone H4 (1–23, SKU:12-0029), unmodified H4 (11–27, SKU:12-0035), H4K16ac (1–23, SKU:12-0033), H4K20ac (1–24, SKU:12-0052) and H4K20me3 (11–27, SKU:12-0038) peptides were obtained from EpiCypher. 1 μg of purified SRM-SANT1 was incubated with 1 μg of Biotin-tagged H4 peptides unmodified or containing single modifications. Reactions were incubated overnight rocking end over end at 4 °C in a binding buffer containing 150 mM NaCl, 50 mM Tris (pH 6.5), 3 mM DTT. Streptavidin sepharose resin (25 μL of 50% slurry, GE Life Sciences) was added to each reaction and rocked end over end at 4 °C for two hours. The reactions were then spun at 2500 × g, supernatant decanted and beads washed with 500 μL of the binding buffer four times. After the final wash, beads were resuspended in 5x SDS loading dye, ran on a 4–20% gradient gel and visualized using coomassie staining. Gels were imaged using an ImageQuant LAS 4000 imager. Quantification of triplicate pull down experiments was performed using ImageJ[59].

T1 sequence (Q15910 141-251): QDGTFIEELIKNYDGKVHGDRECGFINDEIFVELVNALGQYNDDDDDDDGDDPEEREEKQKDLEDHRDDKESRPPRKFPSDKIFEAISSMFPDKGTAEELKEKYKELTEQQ

On to “H4(1–10): unmodified histone H4 (1–10), custom synthesized by GenScript (SGRGKGGKGL)”, for which the “chemical shift perturbations (CSPs) upon peptide addition” value in experiment [1] is given as “very minor CSPs throughout SANT1, indicative of non-specific interactions”. With “H4(11–21): unmodified histone H4 (11–21), custom synthesized by GenScript”, in experiment [1], the “chemical shift perturbations (CSPs) upon peptide addition” value is on record as “confirms binding to the basic patch of H4; also recorded: very similar CSPs as was observed for H4(1–21)”. For the same substance, the “fold weaker binding (Kd) than H4 tail (1–21)” value in experiment [1] (ratio of Kd to that of H4 (1–21)) was ~ 2 x. Turning to “H4K16ac(1–21): Biotinylated histone H4K16ac (1–21, AS-64847-1), obtained from Anaspec; NMR titration”, the entries for the “effect of H4K16 acetylation on interaction/binding (NMR)” value in experiment [1] and in experiment [1] (listed as H4K16ac peptide) were “abrogates binding” and “substantially abrogates interaction with the H4 tail”, respectively. In the case of “H4K16ac: H4K16ac (1–23, SKU:12-0033), biotinylated peptide from EpiCypher; pulldown”, in the experiment with SRM-SANT1, the “effect of modification on SRM-SANT1 binding (pulldown)” value (shortened to “effect of modification”) is “significant decreases in SRM-SANT1 binding” and the “effect of H4 modification on binding of SANT1 to H4 (abstract summary)” value (“effect of H4 modification” below) is recorded as “abrogate binding of SANT1 to H4”. As for “H4K20ac: H4K20ac (1–24, SKU:12-0052), biotinylated peptide from EpiCypher”, in the experiment on SRM-SANT1, the “effect of modification” value is on record as “decreased binding, though not statistically significantly” and the “effect of H4 modification” value is given as “abrogate binding of SANT1 to H4”.

Turning to “H4K20me3: H4K20me3 (11–27, SKU:12-0038), biotinylated peptide from EpiCypher”, in the experiment with SRM-SANT1, the “effect of modification” value was “significant decreases in SRM-SANT1 binding” and the “effect of H4 modification” value is reported as “abrogate binding of SANT1 to H4”.
